Target: T1, K-Ras G12S (Homo sapiens, UniProt P01116, G12S)
T1 construct: made in house; host or cells: E. coli (e.g., BL21 (DE3))
Test: HTRF assay of the K-Ras / SOS1 interaction
Type: biochemical
Settings: IC50 (against K-Ras G12D) to IC50 (against K-Ras G12S)
Source text: This assay can be also used to assess a selective inhibition or reduction of signaling output of a mutant Ras protein relative to a wildtype, or relative to a different mutant Ras protein. For example, the equilibrium interaction of wildtype Kras or K-Ras mutant (e.g., wildtype or a mutant thereof including those mentioned in Example 6) with SOS1 (e.g., hSOS1) can be assessed as a proxy or an indication for a subject compound's ability to bind and inhibit Ras protein. HTRF assay detects from (i) a fluorescence resonance energy transfer (FRET) donor (e.g., antiGST-Europium) that is bound to GST-tagged K-Ras mutant to (ii) a FRET acceptor (e.g., anti-6His-XL665) bound to a His-tagged hSOS 1.
The assay buffer can contain ~5 mM HEPES pH 7.4, -150 mM NaCI, - 1 mM DTT, 0.05% BSA and 0.0025% (v/v) Igepal. A Ras working solution is prepared in an assay buffer containing typically a suitable amount of the protein construct (e.g., GST-tagged K-Ras mutant) and the FRET donor (e.g., antiGST-Eu(K) from Cisbio, France). A SOS1 working solution is prepared in an assay buffer containing suitable amount of the protein construct (e.g., His-hSOS1) and the FRET acceptor (e.g., anti-6His-XL665 from Cisbio, France). A suitable amount of the protein construct will depend on the range of activity or range of IC50 values being detected or under investigation. For detecting IC50 within a range of 500 nM, the protein constructs of the same range of molarity can be utilized.
A fixed volume of DMSO with or without test compound is transferred into a 384-well plate. Ras working solution is added to all wells of the test plate. SOS1 working solution is added to all wells except for those that are subsequently filled the inhibitor control solution. Upon incubation for about 10 minutes or longer, the fluorescence is measured with a M1000Pro plate reader (Tecan) using HTRF detection (excitation 337nm, emission 1 : 620nm, emission 2: 665nm). Compounds are tested in duplicates at different concentrations (for example, 10 µM, 2.5 µM, 0.63 µM, 0.16 µM, 0.04 µM, 0.01 µM test compound). The ratiometric data (i.e., emission 2 divided by emission 1) is used to calculate IC50 values against Ras using GraphPad Prism (GraphPad software). Following this general procedure, samples were tested with or without a subject compound disclosed herein including compounds exemplified in Table 3 to assess their abilities to inhibit K-Ras G12S relative to another mutant (e.g., K-Ras G12D). Signaling output measured in terms of IC50 values can be obtained, a ratio of IC50 against one mutant relative to another mutant can be calculated. For instance, a selective reduction of K-Ras G12S signaling output can be evidenced by a ratio greater than one. In particular, a selective reduction of K-Ras G12S signaling relative to K-Ras G12D signaling is evidenced as the ratio of IC50 (against K-Ras G12D) to IC50 (against K-Ras G12S) is greater than 1. […]

T1 sequence (P01116 1-188 isoform P01116-2 G12S): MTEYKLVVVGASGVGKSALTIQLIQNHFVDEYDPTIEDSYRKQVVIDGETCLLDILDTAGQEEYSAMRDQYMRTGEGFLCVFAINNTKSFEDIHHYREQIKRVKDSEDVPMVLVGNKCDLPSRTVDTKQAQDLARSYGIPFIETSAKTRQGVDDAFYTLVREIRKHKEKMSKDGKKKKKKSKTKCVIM

Nc1nc2c(-c3c(Cl)cc4c(N5CC(N6CCN(C(=O)n7cncn7)CC6)C5)nc(OC[C@@]56CCCN5C[C@H](F)C6)nc4c3F)ccc(F)c2s1 [Compound A166, (4-(1-(7-(2-amino-7-fluorobenzo[d]thiazol-4-yl)-6-chloro-8-fluoro-2-(((2R,7aS)-2-fluorotetrahydro-1H-pyrrolizin-7a(5H)-yl)methoxy)quinazolin-4-yl)azetidin-3-yl)piperazin-1-yl)(1H-1,2,4-triazol-1-yl)methanone]
Ratio of IC50 KRAS G12D vs. IC50 KRAS G12S: A (A: indicates that the ratio of IC50 against KrasG12D vs. IC50 against KrasG12S is 1-fold or greater)

C[C@H](Oc1nc(OC2CCN(C(=O)Nc3nccs3)C2)c2cc(Cl)c(-c3ccc(F)c4sc(N)c(C#N)c34)c(F)c2n1)[C@@H]1CCCN1C (stereo partly drawn) [Compound A237, 3-((7-(2-amino-3-cyano-7-fluorobenzo[b]thiophen-4-yl)-6-chloro-8-fluoro-2-((S)-1-((S)-1-methylpyrrolidin-2-yl)ethoxy)quinazolin-4-yl)oxy)-N-(thiazol-2-yl)pyrrolidine-1-carboxamide]
Ratio of IC50 KRAS G12D vs. IC50 KRAS G12S: A (A: indicates that the ratio of IC50 against KrasG12D vs. IC50 against KrasG12S is 1-fold or greater)

Nc1nc2c(-c3c(Cl)cc4c(OC5CC6CN(C(=O)n7cncn7)CC65)nc(OC[C@@]56CCCN5C[C@H](F)C6)nc4c3F)ccc(F)c2s1 (stereo partly drawn) [Compound A297, (6-((7-(2-amino-7-fluorobenzo[d]thiazol-4-yl)-6-chloro-8-fluoro-2-(((2R,7aS)-2-fluorotetrahydro-1H-pyrrolizin-7a(5H)-yl)methoxy)quinazolin-4-yl)oxy)-3-azabicyclo[3.2.0]heptan-3-yl)(1H-1,2,4-triazol-1-yl)methanone]
Ratio of IC50 KRAS G12D vs. IC50 KRAS G12S: A (A: indicates that the ratio of IC50 against KrasG12D vs. IC50 against KrasG12S is 1-fold or greater)

Nc1nc2c(-c3c(Cl)cc4c(NC5C6CN(C(=O)n7cncn7)CC65)nc(OC[C@@]56CCCN5C[C@H](F)C6)nc4c3F)ccc(F)c2s1 (stereo partly drawn) [Compound A299, (6-((7-(2-amino-7-fluorobenzo[d]thiazol-4-yl)-6-chloro-8-fluoro-2-(((2R,7aS)-2-fluorotetrahydro-1H-pyrrolizin-7a(5H)-yl)methoxy)quinazolin-4-yl)amino)-3-azabicyclo[3.1.0]hexan-3-yl)(1H-1,2,4-triazol-1-yl)methanone]
Ratio of IC50 KRAS G12D vs. IC50 KRAS G12S: A (A: indicates that the ratio of IC50 against KrasG12D vs. IC50 against KrasG12S is 1-fold or greater)

Nc1nc2c(-c3c(Cl)cc4c(NC5CCN(C(=O)Nc6ncccn6)CC5)nc(OC[C@@]56CCCN5C[C@H](F)C6)nc4c3F)ccc(F)c2s1 [Compound A262, 4-((7-(2-amino-7-fluorobenzo[d]thiazol-4-yl)-6-chloro-8-fluoro-2-(((2R,7aS)-2-fluorotetrahydro-1H-pyrrolizin-7a(5H)-yl)methoxy)quinazolin-4-yl)amino)-N-(pyrimidin-2-yl)piperidine-1-carboxamide]
Ratio of IC50 KRAS G12D vs. IC50 KRAS G12S: A (A: indicates that the ratio of IC50 against KrasG12D vs. IC50 against KrasG12S is 1-fold or greater)

Nc1nc2c(-c3c(Cl)cc4c(NCCN5CCN(C(=O)n6cncn6)CC5=O)nc(OC[C@@]56CCCN5C[C@H](F)C6)nc4c3F)ccc(F)c2s1 [Compound A261, 1-(2-((7-(2-amino-7-fluorobenzo[d]thiazol-4-yl)-6-chloro-8-fluoro-2-(((2R,7aS)-2-fluorotetrahydro-1H-pyrrolizin-7a(5H)-yl)methoxy)quinazolin-4-yl)amino)ethyl)-4-(1H-1,2,4-triazole-1-carbonyl)piperazin-2-one]
Ratio of IC50 KRAS G12D vs. IC50 KRAS G12S: A (A: indicates that the ratio of IC50 against KrasG12D vs. IC50 against KrasG12S is 1-fold or greater)

N#Cc1ccn(C(=O)N2CCC(Nc3nc(OC[C@@]45CCCN4C[C@H](F)C5)nc4c(F)c(-c5ccc(F)c6sc(N)nc56)c(Cl)cc34)CC2)n1 [Compound A173, 1-(4-((7-(2-amino-7-fluorobenzo[d]thiazol-4-yl)-6-chloro-8-fluoro-2-(((2R,7aS)-2-fluorotetrahydro-1H-pyrrolizin-7a(5H)-yl)methoxy)quinazolin-4-yl)amino)piperidine-1-carbonyl)-1H-pyrazole-3-carbonitrile]
Ratio of IC50 KRAS G12D vs. IC50 KRAS G12S: A (A: indicates that the ratio of IC50 against KrasG12D vs. IC50 against KrasG12S is 1-fold or greater)

Nc1nc2c(-c3c(Cl)cc4c(N5CCC6(CCN(C(=O)n7cncn7)C6)C5)nc(OC[C@@]56CCCN5C[C@H](F)C6)nc4c3F)ccc(F)c2s1 (stereo partly drawn) [Compound A175, (7-(7-(2-amino-7-fluorobenzo[d]thiazol-4-yl)-6-chloro-8-fluoro-2-(((2R,7aS)-2-fluorotetrahydro-1H-pyrrolizin-7a(5H)-yl)methoxy)quinazolin-4-yl)-2,7-diazaspiro[4.4]nonan-2-yl)(1H-1,2,4-triazol-1-yl)methanone]
Ratio of IC50 KRAS G12D vs. IC50 KRAS G12S: A (A: indicates that the ratio of IC50 against KrasG12D vs. IC50 against KrasG12S is 1-fold or greater)

N#Cc1cccn1C(=O)N1CC2CCC(C1)N2c1nc(OC[C@@]23CCCN2C[C@H](F)C3)nc2c(F)c(-c3ccc(F)c4sc(N)nc34)c(Cl)cc12 [Compound A172, 1-(8-(7-(2-amino-7-fluorobenzo[d]thiazol-4-yl)-6-chloro-8-fluoro-2-(((2R,7aS)-2-fluorotetrahydro-1H-pyrrolizin-7a(5H)-yl)methoxy)quinazolin-4-yl)-3,8-diazabicyclo[3.2. 1]octane-3-carbonyl)-1H-pyrrole-2-carbonitrile]
Ratio of IC50 KRAS G12D vs. IC50 KRAS G12S: A (A: indicates that the ratio of IC50 against KrasG12D vs. IC50 against KrasG12S is 1-fold or greater)

Nc1nc2c(-c3c(Cl)cc4c(NC5CCC6(C5)CN(C(=O)n5cncn5)C6)nc(OC[C@@]56CCCN5C[C@H](F)C6)nc4c3F)ccc(F)c2s1 (stereo partly drawn) [Compound A142, (6-((7-(2-amino-7-fluorobenzo[d]thiazol-4-yl)-6-chloro-8-fluoro-2-(((2R,7aS)-2-fluorotetrahydro-1H-pyrrolizin-7a(5H)-yl)methoxy)quinazolin-4-yl)amino)-2-azaspiro[3.4]octan-2-yl)(1H-1,2,4-triazol-1-yl)methanone]
Ratio of IC50 KRAS G12D vs. IC50 KRAS G12S: A (A: indicates that the ratio of IC50 against KrasG12D vs. IC50 against KrasG12S is 1-fold or greater)

Nc1nc2c(-c3c(Cl)cc4c(N5CC6(CCN(C(=O)n7cncn7)CC6)C5)nc(OC[C@@]56CCCN5C[C@H](F)C6)nc4c3F)ccc(F)c2s1 [Compound A292, (2-(7-(2-amino-7-fluorobenzo[d]thiazol-4-yl)-6-chloro-8-fluoro-2-(((2R,7aS)-2-fluorotetrahydro-1H-pyrrolizin-7a(5H)-yl)methoxy)quinazolin-4-yl)-2,7-diazaspiro[3.5]nonan-7-yl)(1H-1,2,4-triazol-1-yl)methanone]
Ratio of IC50 KRAS G12D vs. IC50 KRAS G12S: A (A: indicates that the ratio of IC50 against KrasG12D vs. IC50 against KrasG12S is 1-fold or greater)

Cc1nc(C(C)C)nn1C(=O)N1CC2(CCCN(c3nc(OC[C@@]45CCCN4C[C@H](F)C5)nc4c(F)c(-c5ccc(F)c6sc(N)c(C#N)c56)c(Cl)cc34)C2)C1 [Compound A240, 2-amino-4-(6-chloro-8-fluoro-2-(((2R,7aS)-2-fluorotetrahydro-1H-pyrrolizin-7 a(5H)-yl)methoxy)-4-(2-(3-isopropyl-5-methyl-1H-1,2,4-triazole-1-carbonyl)-2,6-diazaspiro[3.5]nonan-6-yl)quinazolin-7-yl)-7-fluorobenzo[b]thiophene-3-carbonitrile]
Ratio of IC50 KRAS G12D vs. IC50 KRAS G12S: A (A: indicates that the ratio of IC50 against KrasG12D vs. IC50 against KrasG12S is 1-fold or greater)
